How the values were obtained:
[1] = human gut metagenome, 24 h, 2 µM
[2] = (§1) The drug is tested on WLS-077 corresponding to human gut metagenome with ENA study accession number: PRJEB37062 and ENA sample accession number: ERS12561750 for biotransformation under anaerobic condition. The drug concentrations were measured over 9 timepoints collected between 0 and 24 hours of incubation by liquid-chromatography-coupled mass spectrometry (LC–MS); conditions: 2 µM
[3] = as §1, with “WLS-010” for “WLS-077”, “ERS12561743” for “ERS12561750”; conditions: 2 µM
[4] = human gut metagenome, 24 h, 2 µM; remark: listed apart in the source
[5] = as §1, with “WLS-098” for “WLS-077”, “ERS12561754” for “ERS12561750”; conditions: 2 µM
[6] = human gut metagenome, 24 h, 2 µM; remark: listed apart in the source
[7] = human gut metagenome, 24 h, 2 µM; remark: listed apart in the source
[8] = human gut metagenome, 24 h, 2 µM; remark: listed apart in the source
[9] = as §1, with “WLS-350” for “WLS-077”, “ERS12561789” for “ERS12561750”; conditions: 2 µM
[10] = as §1, with “Z-020” for “WLS-077”, “rabbit” for “human”, “ERS12561819” for “ERS12561750”; conditions: 2 µM
[11] = as §1, with “WLS-052” for “WLS-077”, “ERS12561747” for “ERS12561750”; conditions: 2 µM
[12] = as §1, with “Z-003” for “WLS-077”, “pig” for “human”, “ERS12561803” for “ERS12561750”; conditions: 2 µM
[13] = human gut metagenome, 24 h, 2 µM; remark: listed apart in the source
[14] = human gut metagenome, 24 h, 2 µM; remark: listed apart in the source
[15] = human gut metagenome, 24 h, 2 µM; remark: listed apart in the source
[16] = as §1, with “WLS-310” for “WLS-077”, “ERS12561785” for “ERS12561750”; conditions: 2 µM
[17] = as §1, with “Z-013” for “WLS-077”, “rabbit” for “human”, “ERS12561813” for “ERS12561750”; conditions: 2 µM
[18] = as §1, with “Z-029” for “WLS-077”, “rat” for “human”, “ERS12561828” for “ERS12561750”; conditions: 2 µM
[19] = as §1, with “Z-014” for “WLS-077”, “rat” for “human”, “ERS12561814” for “ERS12561750”; conditions: 2 µM
[20] = as §1, with “Z-025” for “WLS-077”, “rabbit” for “human”, “ERS12561824” for “ERS12561750”; conditions: 2 µM
Further: call rule not given here.

| Bacterial Biotransformation [1] | Bacterial Biotransformation [2] | Bacterial Biotransformation [3] | Bacterial Biotransformation [4] | Bacterial Biotransformation [5] | Bacterial Biotransformation [6] | Bacterial Biotransformation [7] | Bacterial Biotransformation [8] | Bacterial Biotransformation [9] | Bacterial Biotransformation [11] | Bacterial Biotransformation [12] | Bacterial Biotransformation [13] | Bacterial Biotransformation [14] | Bacterial Biotransformation [15] | Bacterial Biotransformation [16] | Bacterial Biotransformation [17] | Bacterial Biotransformation [18] | Bacterial Biotransformation [19] | Bacterial Biotransformation [20] | Structure (SMILES) | Bacterial Biotransformation [10] |
| --- | --- | --- | --- | --- | --- | --- | --- | --- | --- | --- | --- | --- | --- | --- | --- | --- | --- | --- | --- | --- |
| Compound metabolized | Compound NOT metabolized | Compound NOT metabolized | Compound NOT metabolized | Compound metabolized | Compound NOT metabolized | Compound NOT metabolized | Compound NOT metabolized | Compound NOT metabolized | Compound NOT metabolized | – | Compound NOT metabolized | Compound NOT metabolized | Compound NOT metabolized | Compound metabolized | – | – | – | – | CN(C)CCc1c[nH]c2ccc(CS(=O)(=O)N3CCCC3)cc12 [ALMOTRIPTAN] | – |
| Compound metabolized | Compound metabolized | Compound metabolized | Compound NOT metabolized | Compound NOT metabolized | Compound metabolized | Compound NOT metabolized | Compound NOT metabolized | Compound NOT metabolized | Compound metabolized | – | Compound metabolized | Compound metabolized | Compound metabolized | Compound metabolized | – | – | – | – | CCCCC(=O)O[C@]1(C(=O)CO)[C@@H](C)C[C@H]2[C@@H]3CCC4=CC(=O)C=C[C@]4(C)[C@@]3(F)[C@@H](O)C[C@@]21C [BETAMETHASONE VALERATE] | – |
| Compound metabolized | Compound metabolized | Compound metabolized | Compound metabolized | Compound metabolized | Compound metabolized | Compound metabolized | Compound metabolized | Compound metabolized | Compound metabolized | Compound metabolized | Compound metabolized | Compound metabolized | Compound metabolized | Compound metabolized | – | – | – | – | CC(=O)Oc1ccc(C(c2ccc(OC(C)=O)cc2)c2ccccn2)cc1 [BISACODYL] | – |
| Compound metabolized | Compound NOT metabolized | Compound metabolized | Compound NOT metabolized | Compound metabolized | Compound NOT metabolized | Compound NOT metabolized | Compound NOT metabolized | Compound NOT metabolized | Compound metabolized | – | Compound metabolized | Compound metabolized | Compound metabolized | Compound metabolized | – | – | – | – | Cc1nc(Nc2ncc(C(=O)Nc3c(C)cccc3Cl)s2)cc(N2CCN(CCO)CC2)n1 [DASATINIB ANHYDROUS] | – |
| Compound NOT metabolized | Compound NOT metabolized | Compound NOT metabolized | Compound NOT metabolized | Compound NOT metabolized | Compound NOT metabolized | Compound NOT metabolized | Compound NOT metabolized | Compound NOT metabolized | Compound NOT metabolized | – | Compound NOT metabolized | Compound NOT metabolized | Compound metabolized | Compound metabolized | – | – | – | – | COCCCC/C(=N\OCCN)c1ccc(C(F)(F)F)cc1.O=C(O)/C=C\C(=O)O [FLUVOXAMINE MALEATE] | – |
| Compound NOT metabolized | Compound NOT metabolized | Compound NOT metabolized | Compound NOT metabolized | Compound NOT metabolized | Compound NOT metabolized | Compound NOT metabolized | Compound NOT metabolized | Compound NOT metabolized | – | – | Compound NOT metabolized | Compound NOT metabolized | – | Compound NOT metabolized | – | – | – | – | CC#CCn1c(N2CCC[C@@H](N)C2)nc2c1c(=O)n(Cc1nc(C)c3ccccc3n1)c(=O)n2C [LINAGLIPTIN] | – |
| Compound metabolized | Compound NOT metabolized | Compound NOT metabolized | Compound NOT metabolized | Compound metabolized | Compound metabolized | Compound metabolized | Compound NOT metabolized | Compound NOT metabolized | Compound metabolized | – | Compound metabolized | Compound metabolized | Compound metabolized | Compound metabolized | – | – | – | – | N#Cc1ccc2c(c1)N(CCCN1CCC(O)CC1)c1ccccc1S2 [PERICIAZINE] | – |
| Compound metabolized | Compound NOT metabolized | – | – | Compound metabolized | Compound NOT metabolized | Compound NOT metabolized | Compound metabolized | Compound NOT metabolized | – | Compound NOT metabolized | Compound NOT metabolized | Compound NOT metabolized | – | Compound metabolized | Compound metabolized | Compound NOT metabolized | Compound NOT metabolized | – | CNNCc1ccc(C(=O)NC(C)C)cc1 [PROCARBAZINE] | – |
| Compound metabolized | Compound metabolized | Compound metabolized | Compound metabolized | Compound metabolized | Compound metabolized | Compound metabolized | – | Compound metabolized | Compound metabolized | Compound metabolized | Compound metabolized | – | Compound metabolized | Compound metabolized | Compound metabolized | Compound NOT metabolized | Compound NOT metabolized | Compound NOT metabolized | N#Cc1ccc2[nH]cc(CCCCN3CCN(c4ccc5oc(C(N)=O)cc5c4)CC3)c2c1 [VILAZODONE] | – |

| Structure (SMILES) | Bacterial Biotransformation [1] | Bacterial Biotransformation [2] | Bacterial Biotransformation [3] | Bacterial Biotransformation [4] | Bacterial Biotransformation [5] | Bacterial Biotransformation [6] | Bacterial Biotransformation [7] | Bacterial Biotransformation [8] | Bacterial Biotransformation [9] | Bacterial Biotransformation [11] | Bacterial Biotransformation [12] | Bacterial Biotransformation [13] | Bacterial Biotransformation [14] | Bacterial Biotransformation [15] | Bacterial Biotransformation [16] | Bacterial Biotransformation [17] | Bacterial Biotransformation [18] | Bacterial Biotransformation [19] | Bacterial Biotransformation [20] | Bacterial Biotransformation [10] |
| --- | --- | --- | --- | --- | --- | --- | --- | --- | --- | --- | --- | --- | --- | --- | --- | --- | --- | --- | --- | --- |
| N[C@@H](Cc1ccc(N(CCCl)CCCl)cc1)C(=O)O | Compound metabolized | Compound metabolized | Compound metabolized | Compound metabolized | Compound metabolized | Compound metabolized | Compound NOT metabolized | Compound NOT metabolized | Compound NOT metabolized | Compound metabolized | Compound metabolized | – | – | – | – | – | – | – | – | Compound metabolized |
| CNCC[C@H](Oc1cccc2ccccc12)c1cccs1 [DULOXETINE] | Compound metabolized | Compound NOT metabolized | Compound NOT metabolized | Compound NOT metabolized | Compound metabolized | Compound NOT metabolized | Compound NOT metabolized | Compound NOT metabolized | Compound NOT metabolized | Compound NOT metabolized | – | Compound NOT metabolized | Compound NOT metabolized | Compound NOT metabolized | Compound metabolized | – | – | – | – | – |
